Legend:
[1] = biological target: Neuronal acetylcholine receptor alpha4beta2 (Rattus norvegicus); experiment: Inhibition constant against [3H]nicotine binding to alpha4beta2 nicotinic acetylcholine receptor of rat brain membranes
[2] = biological target: T1, Synaptic vesicular amine transporter (Rattus norvegicus, UniProt Q01827); experiment: Inhibition constant against [3H]dihydrotetrabenazine binding to vesicular monoamine transporter-2 of rat synaptic vesicle membranes
[3] = biological target: Neuronal acetylcholine receptor alpha7 (Rattus norvegicus); experiment: Inhibition constant against [3H]methyllycaconitine binding to alpha7 nicotinic acetylcholine receptor of rat brain membranes
[4] = biological target: T1, Synaptic vesicular amine transporter; experiment: Inhibition constant against [3H]nicotine binding to vesicular monoamine transporter-2 of rat brain membranes
[5] = biological target: T1, Synaptic vesicular amine transporter; experiment: Inhibition constant against [3H]methyllycaconitine binding to vesicular monoamine transporter-2 of rat brain membranes

T1 sequence (Q01827 whole entry): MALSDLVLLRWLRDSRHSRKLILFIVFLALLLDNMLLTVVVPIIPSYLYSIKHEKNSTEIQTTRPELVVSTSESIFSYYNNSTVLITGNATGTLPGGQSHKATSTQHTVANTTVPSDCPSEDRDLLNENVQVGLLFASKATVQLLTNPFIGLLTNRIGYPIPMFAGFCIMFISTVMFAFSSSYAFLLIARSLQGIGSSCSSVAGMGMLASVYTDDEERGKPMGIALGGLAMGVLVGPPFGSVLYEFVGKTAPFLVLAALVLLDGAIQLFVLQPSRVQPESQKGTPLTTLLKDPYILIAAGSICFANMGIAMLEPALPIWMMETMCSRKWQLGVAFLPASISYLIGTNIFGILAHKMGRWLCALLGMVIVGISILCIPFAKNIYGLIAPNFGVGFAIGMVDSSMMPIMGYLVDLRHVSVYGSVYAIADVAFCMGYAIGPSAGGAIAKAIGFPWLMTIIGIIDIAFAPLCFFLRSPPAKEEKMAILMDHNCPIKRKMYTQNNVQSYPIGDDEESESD

**Q.** Which Ki [1] does the source give for `COc1ccc(C[C@@H]2C[C@H](Cc3ccc(OC)cc3)C3CCC2N3C)cc1` here?
**A.** The Ki was > 100 µM.

**Q.** What about the Ki [2] of the same molecule?
**A.** The Ki was 3.88 µM.

**Q.** What about the Ki [3] of the same molecule?
**A.** The Ki was > 100 µM.

**Q.** How did the Ki [1] turn out when `CN1C2CCC1[C@@H](Cc1ccc(F)cc1)C[C@H]2Cc1ccc(F)cc1` was run?
**A.** Its Ki is > 100 µM.

**Q.** What about the Ki [2] of the same molecule?
**A.** The Ki was > 100 µM.

**Q.** And the Ki [3]?
**A.** Its Ki is > 100 µM.

**Q.** With `CN1C2CCC1[C@@H](Cc1ccccc1)C(=O)[C@H]2Cc1ccccc1` as the molecule, how does the Ki [1] read?
**A.** The Ki was > 100 µM.

**Q.** What about the Ki [2] of the same molecule?
**A.** Its Ki is > 100 µM.

**Q.** What about the Ki [3] of the same molecule?
**A.** The Ki was > 100 µM.

**Q.** Which results are given for `CN1C2CC=C(Cc3ccccc3)C1CC2` (stereo not drawn)?
**A.** Ki [1]: 1.84 µM; Ki [2]: > 100 µM; Ki [3]: 15.2 µM

**Q.** How did the Ki [1] turn out when `CN1C2CCC1[C@H](Cc1ccccc1)CC2` (stereo partly drawn) was run?
**A.** The Ki was > 6.57 µM.

**Q.** What about the Ki [2] of the same molecule?
**A.** Its Ki is > 100 µM.

**Q.** And the Ki [3]?
**A.** The Ki was 14 µM.

**Q.** How did the Ki [1] turn out when `CN1C2CCC1[C@@H](Cc1ccc(F)cc1)C=C2Cc1ccc(F)cc1` (stereo partly drawn) was run?
**A.** Its Ki is > 100 µM.

**Q.** And the Ki [2]?
**A.** Its Ki is 1.38 µM.

**Q.** And the Ki [3]?
**A.** Its Ki is > 100 µM.

**Q.** What does the source list for `CN1C2CCC1[C@@H](CCCc1ccccc1)C[C@H]2CCCc1ccccc1`?
**A.** Ki [1]: > 100 µM; Ki [2]: 3.95 µM; Ki [3]: > 100 µM

**Q.** How did the Ki [1] turn out when `COc1ccc(CC2=C[C@H](Cc3ccc(OC)cc3)C3CCC2N3C)cc1` (stereo partly drawn) was run?
**A.** The Ki was > 100 µM.

**Q.** And the Ki [2]?
**A.** Its Ki is 4.8 µM.

**Q.** And the Ki [3]?
**A.** Its Ki is > 100 µM.

**Q.** Which results are given for `CN1C2CCC1[C@@H](Cc1ccccc1)C[C@H]2Cc1ccccc1`?
**A.** Ki [1]: > 100 µM; Ki [2]: > 100 µM; Ki [3]: > 100 µM

**Q.** With `CN1C2CCC1[C@@H](Cc1ccccc1)C(O)[C@H]2Cc1ccccc1` (stereo in doubt; 7a) as the molecule, how does the Ki [1] read?
**A.** The Ki was > 100 µM.

**Q.** What about the Ki [2] of the same molecule?
**A.** The Ki was > 100 µM.

**Q.** And the Ki [3]?
**A.** Its Ki is > 100 µM.

**Q.** What does the source list for `CN1C2CCC1[C@@H](Cc1ccccc1)C(O)[C@H]2Cc1ccccc1` (stereo in doubt; 7b)?
**A.** Ki [4]: > 100 µM; Ki [2]: > 100 µM; Ki [5]: > 100 µM

— ChEMBL document CHEMBL1142843, “Synthesis and evaluation of a series of tropane analogues as novel vesicular monoamine transporter-2 ligands” (Bioorg Med Chem Lett, 2005)
